“Also recorded” adds a separate entry of the source.
Key:
Caski cells = assay: cell viability (MTS, Celltiter 96 AQueous) Caski; format: cell-based, human; conditions: 48 to 96 hours, relative to DMSO
[1] = system: Caski, HeLa, RPE-1, C33a and HaCat cells; assay: cell number and morphology (bright field microscopy); format: cell-based, human; conditions: 72 hours
[2] = system: primary human foreskin keratinocytes; assay: p53/p21 immunoblot analysis in primary HFKs; format: cell-based; conditions: 40 hours
Description: Each compound was used to treat primary HFKs or HFKs immortalized through the over-expression of HPV16 E6 and E7 proteins.
(§1) 20,000 cells per cm^2 were plated in 6-well dishes. Cells were incubated for 24 hours at which time fresh media and compound were added. After 40 hours, cells were harvested, washed with cold PBS, and lysed in RIPA buffer with protease inhibitor. Each sample was separated on a 12% SDS-page gel, transferred to Immobilon-P membrane (Millipore) and blotted for the p53 (DO-1, Santa Cruz), p21 (c-19, Santa Cruz), and actin (A2066, Sigma). Protein quantification was performed with the Fujifilm LAS-4000 Multifunctional Imaging System. The signal intensity was measured for each band on an immunoblot, normalized to the loading control, and the fold increase was determined in relation to the appropriate DMSO treated control. RNA was isolated from these cells using Trizol Reagent (Invitrogen 15596-026). cDNA was generated using the Improm-II Reverse Transcription System (Promega A3801). qPCR was performed as described in the protocol for SsoFast EvaGreen supermix (BioRad 172-5023) using an BioRad CFX96 real-time PCR machine. Melting curves for each reaction were obtained. Each sample was assayed in triplicate and every plate contained a 5-point cDNA dilution course to calculate amplification efficiency for each primer pair. The Pfaffl method was used to determine the change in transcript levels relative to the DMSO and normalized to GAPDH.

p21^Cip1/Waf1 mRNA = assay: p21 mRNA qRT-PCR; format: cell-based, human; conditions: relative to DMSO, normalized to GAPDH
Description: It is possible that the increased p53 and p21 levels resulted from non-specific inhibition of protein degradation. However, if the increase in p21 was dependent upon p53 promoter activation, it should be possible to detect changes in the amounts of p21 mRNA detected in treated cells. To confirm that the increase in p21 protein level resulted from p53 activation, the levels of p21 mRNA were analyzed using qRT-PCR.
Figure 6 Induction of p21^Cip1/Waf1 mRNA. Compounds were tested for the ability to induce p21^Cip1/Waf1 expression at the mRNA level. Relative increases in transcripts were determined by qRT-PCR. […] Fold induction was calculated in relation to treatment with DMSO and normalized to GAPDH. Data were analyzed using one-way ANOVA with post-hoc analysis (Dunnetts; S.E.M.; n=2). Statistical significance (p<0.01) is indicated as * in comparison to Caski control (DMSO), # E6/E7 HFK control (DMSO), § HFK control (DMSO), and ◙ for RPE-1 control (DMSO).
20,000 cells per cm^2 were plated in 6-well dishes. Cells were incubated for 24 hours at which time fresh media and compound were added. […] Protein quantification was performed with the Fujifilm LAS-4000 Multifunctional Imaging System. The signal intensity was measured for each band on an immunoblot, normalized to the loading control, and the fold increase was determined in relation to the appropriate DMSO treated control. […]

RPE-1 cells = assay: p53/p21 immunoblot analysis in RPE-1 cells; format: cell-based, human; conditions: RPE-1 (HPV negative), 40 hours
Description: Caski cells, which are derived from an HPV-16 infected cervical carcinoma and express HPV-16 E6 and E7, were used to determine whether these compounds interfere with HPV-16 E6 function. Inhibition of E6 should block its ability to promote the degradation of p53 thereby increasing the levels of p53. […] These compounds were also assayed in telomerase immortalized human retinal epithelial cells (RPE-1). […] If the elevation in p53 is dependent on the inhibition of E6 by these compounds, p53 should not increase in the RPE-1 cells.
as §1

[3] = solubility in aqueous SPR buffers; format: physicochemical; conditions: for aqueous solubility (in words): simple aqueous solution
caspases 3 and 7 = assay: Caspase-Glo 3/7 apoptosis assay; format: cell-based, human; conditions: 4 – 48 hours
Description: This was specific to Caski cells and was not observed in RPE-1, HeLa cells, or the HPV negative control cell lines C33a and HaCat (Figures S2A,B ). […] As observed in the viability assay, this occurred in both the HPV positive and negative cell lines. […] These cell lines were also assayed for apoptosis.
For cell viability, 12,000 cells per cm^2 were plated in 96-well dishes 24 hours prior to drug addition. Fresh media and compound were added. Plates were read after 72-96 hours. Relative cell viability was assayed as directed in the Celltiter 96 AQueous one solution assay (Promega). For caspase activity, plates were assayed after 4, 8, 12, 24, or 48 hours as described for the Caspase-Glo 3/7 assay (Promega).

## COc1cccc(-c2cc(=O)c3cc(-c4nnn[nH]4)ccc3o2)c1 [CAF-24]
Caski cells
  cell growth and viability: selectively inhibited growth
[1]
  number of cells per well: decreased Caski and HeLa cell numbers
[1]; luteolin @ 50µM
  cell morphology: no change in cell morphology
[2]
  p21 protein levels: little effect on p53 and p21 levels
  p53 protein levels: little effect on p53 and p21 levels
p21^Cip1/Waf1 mRNA
  p21 mRNA level: increase in p21 mRNA
RPE-1 cells
  p21 protein levels: did not induce increased levels of p53 or p21 proteins
  p53 protein levels: did not induce increased levels of p53 or p21 proteins
[3]
  aqueous solubility (in words): poor solubility; also recorded: limited aqueous solubility
Caspases 3 and 7
  caspase 3 and 7 activity: did not observe increased caspase activity

## O=c1cc(-c2ccc(O)c(O)c2)oc2cc(O)cc(O)c12 [luteolin, reference compound]
Caski cells
  cell growth and viability: potent inhibitor of Caski, E6/E7 HFKs, and HeLa growth
[1]
  number of cells per well: dramatic decrease in the number of cells per well
[2]
  p21 protein levels: E6 independent increase in p53 and p21
  p53 protein levels: E6 independent increase in p53 and p21
p21^Cip1/Waf1 mRNA
  p21 mRNA level: increase in p21 mRNA
RPE-1 cells
  p53 protein levels: increase in p53 protein levels, but only at concentrations higher than was required to increase p53 and p21 levels in the Caski cells
[3]; aqueous SPR buffers, read-out: concentration soluble in the appropriate buffers
  solubility: < 20 µM
[3]
  aqueous solubility (in words): poor solubility
Caspases 3 and 7
  caspase 3 and 7 activity: did not observe increased caspase activity

From PMC3871595, “Structure Based Identification and Characterization of Flavonoids That Disrupt Human Papillomavirus-16 E6 Function” (PLoS ONE, 2013)
